Reference: patent publication US20220218699A1, “New Pharmaceutical Formulation” (Hoffmann-La Roche Inc., priority 2019, published 2022)

Assays:
TrkC = TrkC (Homo sapiens, UniProt Q16288); details: cited from earlier work
TrkB = TrkB (Homo sapiens, UniProt Q16620); details: cited from earlier work
[1] = target: anaplastic lymphoma kinase (ALK) (Homo sapiens, UniProt Q9UM73); details: cited from earlier work
[2] = Single-dose food effect study in dogs; format: in vivo; details: formulation that did not comprise at least one acidulant
Source text: Such food effects can cause difficulty during human testing of drugs as the fed or fasted condition of the patient can cause exposure or bioavailability of drugs to vary widely.

Chain of TrkB (Q16620 32-822): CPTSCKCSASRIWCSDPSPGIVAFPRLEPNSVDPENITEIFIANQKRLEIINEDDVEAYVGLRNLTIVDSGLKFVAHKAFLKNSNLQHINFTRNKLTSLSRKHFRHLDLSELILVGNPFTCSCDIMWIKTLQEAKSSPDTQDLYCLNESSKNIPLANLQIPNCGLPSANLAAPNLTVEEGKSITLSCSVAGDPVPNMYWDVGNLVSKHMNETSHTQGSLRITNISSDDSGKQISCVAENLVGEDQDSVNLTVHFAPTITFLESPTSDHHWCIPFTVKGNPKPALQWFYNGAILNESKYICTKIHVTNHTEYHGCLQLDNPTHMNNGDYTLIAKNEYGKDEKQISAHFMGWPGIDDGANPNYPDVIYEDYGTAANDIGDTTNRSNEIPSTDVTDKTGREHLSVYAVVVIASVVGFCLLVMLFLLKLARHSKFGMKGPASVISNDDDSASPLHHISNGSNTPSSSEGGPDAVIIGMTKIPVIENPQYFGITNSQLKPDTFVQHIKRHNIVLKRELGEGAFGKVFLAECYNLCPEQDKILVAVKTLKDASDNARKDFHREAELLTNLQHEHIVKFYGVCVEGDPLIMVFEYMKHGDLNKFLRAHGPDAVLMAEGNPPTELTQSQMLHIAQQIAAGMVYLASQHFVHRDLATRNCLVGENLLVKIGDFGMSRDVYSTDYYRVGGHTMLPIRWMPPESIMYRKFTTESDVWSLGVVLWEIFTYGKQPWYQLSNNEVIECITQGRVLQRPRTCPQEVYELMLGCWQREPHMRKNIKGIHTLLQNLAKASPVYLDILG
Chain of anaplastic lymphoma kinase (ALK) (Q9UM73 19-1620): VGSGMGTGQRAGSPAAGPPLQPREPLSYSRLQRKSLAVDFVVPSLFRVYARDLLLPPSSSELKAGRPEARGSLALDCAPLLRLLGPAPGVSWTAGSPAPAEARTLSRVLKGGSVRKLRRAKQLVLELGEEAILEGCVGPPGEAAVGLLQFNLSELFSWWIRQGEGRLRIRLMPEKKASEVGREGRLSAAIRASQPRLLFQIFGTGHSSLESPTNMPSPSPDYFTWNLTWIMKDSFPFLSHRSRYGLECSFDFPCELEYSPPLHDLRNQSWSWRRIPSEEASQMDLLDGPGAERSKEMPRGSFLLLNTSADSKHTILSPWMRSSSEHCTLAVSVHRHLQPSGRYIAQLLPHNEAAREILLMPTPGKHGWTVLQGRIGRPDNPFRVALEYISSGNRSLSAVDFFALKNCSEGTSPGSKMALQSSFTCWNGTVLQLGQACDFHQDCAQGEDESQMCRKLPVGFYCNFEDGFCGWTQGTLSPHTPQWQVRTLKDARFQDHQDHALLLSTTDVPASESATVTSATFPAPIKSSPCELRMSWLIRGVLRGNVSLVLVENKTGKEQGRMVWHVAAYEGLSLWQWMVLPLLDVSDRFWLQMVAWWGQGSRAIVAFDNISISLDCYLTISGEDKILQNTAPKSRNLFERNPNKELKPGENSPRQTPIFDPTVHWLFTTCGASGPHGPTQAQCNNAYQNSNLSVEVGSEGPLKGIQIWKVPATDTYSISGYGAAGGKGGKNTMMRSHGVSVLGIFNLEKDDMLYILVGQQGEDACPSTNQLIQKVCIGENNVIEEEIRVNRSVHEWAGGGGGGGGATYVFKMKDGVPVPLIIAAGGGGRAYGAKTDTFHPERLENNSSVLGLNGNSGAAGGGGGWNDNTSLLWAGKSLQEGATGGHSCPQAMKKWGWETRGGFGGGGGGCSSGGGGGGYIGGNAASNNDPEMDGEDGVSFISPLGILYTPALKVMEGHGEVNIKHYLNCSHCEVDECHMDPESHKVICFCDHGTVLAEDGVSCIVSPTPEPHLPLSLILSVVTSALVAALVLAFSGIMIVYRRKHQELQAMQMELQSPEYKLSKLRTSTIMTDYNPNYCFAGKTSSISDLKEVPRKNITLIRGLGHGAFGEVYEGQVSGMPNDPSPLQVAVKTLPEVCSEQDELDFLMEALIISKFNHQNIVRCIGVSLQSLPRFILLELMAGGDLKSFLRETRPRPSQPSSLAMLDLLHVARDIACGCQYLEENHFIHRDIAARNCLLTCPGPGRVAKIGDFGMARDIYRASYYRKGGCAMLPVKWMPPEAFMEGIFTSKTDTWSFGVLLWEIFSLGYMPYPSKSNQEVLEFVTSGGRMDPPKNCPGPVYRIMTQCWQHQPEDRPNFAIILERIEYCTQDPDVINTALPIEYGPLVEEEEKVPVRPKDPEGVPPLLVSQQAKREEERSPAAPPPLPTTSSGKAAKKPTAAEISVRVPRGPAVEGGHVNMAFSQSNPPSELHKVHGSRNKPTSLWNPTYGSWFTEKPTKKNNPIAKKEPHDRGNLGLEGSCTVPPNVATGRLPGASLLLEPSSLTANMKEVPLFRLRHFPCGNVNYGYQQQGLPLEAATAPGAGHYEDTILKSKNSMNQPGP
Chain of TrkC (Q16288 32-839): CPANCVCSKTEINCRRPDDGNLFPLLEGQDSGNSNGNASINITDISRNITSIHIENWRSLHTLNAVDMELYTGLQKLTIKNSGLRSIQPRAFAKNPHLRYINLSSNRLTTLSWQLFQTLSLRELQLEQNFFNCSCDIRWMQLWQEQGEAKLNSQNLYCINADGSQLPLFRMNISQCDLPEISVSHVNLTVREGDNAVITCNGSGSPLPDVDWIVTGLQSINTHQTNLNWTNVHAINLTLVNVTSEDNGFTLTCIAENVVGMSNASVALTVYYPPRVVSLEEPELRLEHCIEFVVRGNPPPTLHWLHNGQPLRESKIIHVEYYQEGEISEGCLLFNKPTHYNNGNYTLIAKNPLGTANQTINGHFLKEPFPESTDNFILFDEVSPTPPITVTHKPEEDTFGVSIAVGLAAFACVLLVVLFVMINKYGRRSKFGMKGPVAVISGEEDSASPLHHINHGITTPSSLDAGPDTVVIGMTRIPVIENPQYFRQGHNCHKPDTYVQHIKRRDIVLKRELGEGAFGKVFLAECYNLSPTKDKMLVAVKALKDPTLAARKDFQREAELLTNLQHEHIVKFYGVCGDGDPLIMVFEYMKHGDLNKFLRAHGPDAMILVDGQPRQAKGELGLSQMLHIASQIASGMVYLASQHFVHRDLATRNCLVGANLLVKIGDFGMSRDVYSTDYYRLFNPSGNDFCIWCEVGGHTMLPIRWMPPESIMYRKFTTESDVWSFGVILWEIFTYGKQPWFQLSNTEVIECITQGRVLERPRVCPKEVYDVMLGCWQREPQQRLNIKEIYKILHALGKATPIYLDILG

CN1CCN(c2ccc(C(=O)Nc3n[nH]c4ccc(Cc5cc(F)cc(F)c5)cc34)c(NC3CCOCC3)c2)CC1 [N-[5-(3,5-difluorobenzyl)-1H-indazol-3-yl]-4-(4-methyl-piperazin-1-yl)-2-(tetrahydro-pyran-4-ylamino)-benzamide]
inhibition of tyrosine kinase TrkC (TrkC): potent inhibitor
inhibition of tyrosine kinase TrkB (TrkB): potent inhibitor
inhibition of tyrosine kinase ALK [1]: potent inhibitor
exposure levels under fed conditions compared to fasting conditions [2]: approximately 2 fold
